Source: patent US8765723B2, “Analogues of cilostazol” (CoNCERT Pharmaceuticals Inc., priority 2007, dated 2014)
Like-named read-outs stand apart in the source and are kept apart here.

Assay: Determination of metabolic stability in human liver microsomes
Format: in vitro ADME
Details: for half-life at 1 μM: pH 7.4, read-out: In vitro half-life t1/2 in human liver microsomes; for half-life at 1 μM / In vitro half-life t1/2 in human liver microsomes: 0.5 mg/mL human liver microsomes, 1 μM test compound, 2 mM NADPH, 37° C., 0-30 minutes; for stabilization in comparison to undeuterated counterpart (in words): repeated experiment, Table 4, vs cilostazol (106, 100) or dehydrocilostazol (110)
Method: Human liver microsomes (20 mg/mL) were obtained from Xenotech, LLC (Lenexa, Kans.). β-nicotinamide adenine dinucleotide phosphate, reduced form (NADPH), magnesium chloride (MgCl2), and dimethyl sulfoxide (DMSO) were purchased from Sigma-Aldrich.
7.5 mM stock solutions of test compounds, as well as cilostazol and 7-ethoxycoumarin (as a positive control) were prepared in DMSO. The 7.5 mM stock solutions were diluted to 50 μM in acetonitrile (ACN). The 20 mg/mL human liver microsomes were diluted to 0.625 mg/mL in 0.1 M potassium phosphate buffer, pH 7.4, containing 3 mM MgCl2. The diluted microsomes were added to wells of a 96-well deep-well polypropylene plate in triplicate. Ten μL of the 50 μM test compound was added to the microsomes and the mixture was pre-warmed for 10 minutes. Reactions were initiated by addition of pre-warmed NADPH solution. The final reaction volume was 0.5 mL and contained 0.5 mg/mL human liver microsomes, 1 μM test compound, and 2 mM NADPH in 0.1 M potassium phosphate buffer, pH 7.4, and 3 mM MgCl2. The reaction mixtures were incubated at 37° C., and 50 μL aliquots were removed at 0, 5, 10, 20, and 30 minutes and added to shallow-well 96-well plates which contained 50 μL of ice-cold ACN with internal standard to stop the reactions. The plates were stored at 4° C. for 20 minutes after which 100 μL of water was added to the wells of the plate before centrifugation to pellet precipitated proteins. Supernatants were transferred to another 96-well plate and analyzed for amounts of parent remaining by LC-MS/MS using an Applied Bio-systems API 4000 mass spectrometer.
The in vitro t1/2s for test compounds were calculated from the slopes of the linear regression of % parent remaining (ln) vs incubation time relationship: in vitro t1/2=0.693/k, where k=−[slope of linear regression of % parent remaining(ln) vs incubation time]. Data analysis was performed using Microsoft Excel Software.

[2H]C1([2H])CCC(n2nnnc2CCCCOc2ccc3c(c2)C([2H])([2H])C([2H])([2H])C(=O)N3)CC1 [Compound 101, 6-(4-(1-(4,4-d2-Cyclohexyl)-1H-tetrazol-5-yl)butoxy)-3,3,4,4-d4-dihydroquinolin-2(1H)-one]
half-life at 1 μM (first experiment (Table 3)): 0.753 h

[2H]C1([2H])CC(n2nnnc2CCCCOc2ccc3[nH]c(=O)ccc3c2)CC([2H])([2H])C1([2H])[2H] [Compound 113, 6-(4-(1-(3,3,4,4,5,5-d6-Cyclohexyl)-1H-tetrazol-5-yl)butoxy)-3,4-dihydroquinolin-2(1H)-one]
half-life at 1 μM (repeated experiment (Table 4)): 1.49 h

O=c1ccc2cc(OCCCCc3nnnn3C3CCCCC3)ccc2[nH]1 [Dehydrocilostazol, reference compound]
half-life at 1 μM (repeated experiment (Table 4)): 1.31 h

[2H]C1([2H])C([2H])([2H])C([2H])([2H])C([2H])(n2nnnc2CCCCOc2ccc3c(c2)CCC(=O)N3)C([2H])([2H])C1([2H])[2H] [Compound 106, 6-(4-(1-(Cyclohexyl-d11)-1H-tetrazol-5-yl)butoxy)-3,4-dihydroquinolin-2(1H)-one]
half-life at 1 μM (first experiment (Table 3)): 1.32 h | In vitro half-life t1/2 in human liver microsomes (repeated experiment (Table 4)): 1.45 h | stabilization in comparison to undeuterated counterpart (in words): stabilized

O=C1CCc2cc(OCCCCc3nnnn3C3CCCCC3)ccc2N1 [Cilostazol, 6-[4-(1-Cyclohexyl-1H-tetrazol-5-yl)butoxy]-3,4-dihydro-2(1H)-quinolinone]
half-life at 1 μM (first experiment (Table 3)): 0.78 h | In vitro half-life t1/2 in human liver microsomes (repeated experiment (Table 4)): 1.03 h

[2H]C1([2H])C([2H])([2H])C([2H])([2H])C([2H])(n2nnnc2CCCCOc2ccc3[nH]c(=O)ccc3c2)C([2H])([2H])C1([2H])[2H] [Compound 110]
half-life at 1 μM (first experiment (Table 3)): 1.24 h | In vitro half-life t1/2 in human liver microsomes (repeated experiment (Table 4)): Stable* | stabilization in comparison to undeuterated counterpart (in words): stabilized

[2H]C1([2H])C(=O)Nc2ccc(OCCCCc3nnnn3C3([2H])C([2H])([2H])C([2H])([2H])C([2H])([2H])C([2H])([2H])C3([2H])[2H])cc2C1([2H])[2H] [Compound 100, 6-(4-(1-(Cyclohexyl-d11)-1H-tetrazol-5-yl)butoxy)-3,3,4,4-d4-dihydroquinolin-2(1H)-one]
In vitro half-life t1/2 in human liver microsomes (first experiment (Table 3)): 0.695 h | stabilization in human liver microsomes (in words) (previous (first) experiment, Table 3): no stabilization | In vitro half-life t1/2 in human liver microsomes (repeated experiment (Table 4)): 1.64 h | stabilization in comparison to undeuterated counterpart (in words): stabilized

[2H]C1([2H])CC(n2nnnc2CCCCOc2ccc3c(c2)CCC(=O)N3)CC([2H])([2H])C1([2H])[2H] [Compound 112, 6-(4-(1-(3,3,4,4,5,5-d6-Cyclohexyl)-1H-tetrazol-5-yl)butoxy)-3,4-dihydroquinolin-2(1H)-one]
half-life at 1 μM (repeated experiment (Table 4)): 1.32 h

[2H]C1([2H])CCC(n2nnnc2CCCCOc2ccc3c(c2)CCC(=O)N3)CC1 [Compound 107, 6-(4-(1-(4,4-d2-Cyclohexyl)-1H-tetrazol-5-yl)butoxy)-3,4-dihydroquinolin-2(1H)-one]
half-life at 1 μM (first experiment (Table 3)): 0.595 h
